Molecules are shown by their SMILES.

Here are results for ten compounds from paper PMC9970836 (Biomolecules & Therapeutics, 2022).

The target in this test is 5-HT2AR (Homo sapiens, UniProt P28223). The experiment in a line: 5-HT2AR radioligand binding assay.
Chain of 5-HT2AR (P28223 whole entry): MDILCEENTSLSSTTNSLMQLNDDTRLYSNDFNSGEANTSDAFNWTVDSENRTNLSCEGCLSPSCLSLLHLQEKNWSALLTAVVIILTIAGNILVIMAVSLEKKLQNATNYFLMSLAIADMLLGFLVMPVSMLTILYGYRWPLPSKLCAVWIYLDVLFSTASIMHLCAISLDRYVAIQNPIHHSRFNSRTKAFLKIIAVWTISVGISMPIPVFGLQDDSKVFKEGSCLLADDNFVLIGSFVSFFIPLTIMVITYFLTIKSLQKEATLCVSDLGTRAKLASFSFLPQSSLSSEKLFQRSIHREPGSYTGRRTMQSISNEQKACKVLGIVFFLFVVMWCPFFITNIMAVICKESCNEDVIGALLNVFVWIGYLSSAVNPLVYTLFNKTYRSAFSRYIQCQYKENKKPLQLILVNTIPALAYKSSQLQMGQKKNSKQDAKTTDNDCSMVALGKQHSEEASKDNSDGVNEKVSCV

`CCCc1cc(OC)c(CCN)cc1OC` [Compd 1, 2,5-dimethoxy-4-propyl-benzeneethanamine] gave a Ki of 3.47 nM. `COc1cc(CCNCc2ccccc2F)c(OC)cc1Cl` [Compd 11, 4-chloro-N-[(2-fluorophenyl)methyl]-2,5-dimethoxy-benzeneethanamine] gave a Ki of 10.8 nM.

Compound `CCc1cc(OC)c(CCNCc2ccccc2OC)cc1OC` [Compd 7, 2-(4-ethyl-2,5-dimethoxyphenyl)-N-(2-methoxybenzyl)ethan-1-amine] came in with a Ki of 1.52 nM. The value for `COc1cc(CCNCc2ccccc2F)c(OC)cc1Br` [Compd 12, 4-bromo-N-[(2-fluorophenyl)methyl]-2,5-dimethoxy-benzeneethanamine] was 3.63 nM; that for `C=CCN(CC=C)CCc1c[nH]c2ccc(OC)cc12` [Compd 25, N-allyl-N-[2-(5-methoxy-1H-indol-3-yl)ethyl] prop-2-en-1-amine] was 258 nM; that for `COc1cc([N+](=O)[O-])c(OC)cc1CCN` [Compd 2, 2,5-Dimethoxy-4-nitrophenethylamine] was 25.2 nM. `COc1cc(CCNCc2ccccc2OC)c(OC)cc1Cl` [Compd 8, 2-(4-chloro-2,5-dimethoxyphenyl)-N-(2-methoxybenzyl)ethanamine] displayed a Ki of 0.817 nM. On to `COc1cc(CCNCc2ccccc2OC)c(OC)cc1C` [Compd 6, 2-(2,5-dimethoxy-4-methylphenyl)-N-(2-methoxybenzyl)ethanamine], for which the Ki worked out at 2.88 nM.

As to `CCCN(CC)CCc1c[nH]c2ccc(OC)cc12` [Compd 20, 5-methoxy -N-ethyl-N-propyl tryptamine], the affinity corresponds to a Ki of 122 nM. The value for `CCN(CC)CCc1c[nH]c2cccc(OC(C)=O)c12` [Compd 18, 4-Acetoxy-N,N-diethyltryptamine] was 595 nM.
